Laboratory results reported in ChEMBL document CHEMBL5291721, “A preclinical secondary pharmacology resource illuminates target-adverse drug reaction associations of marketed drugs” (Nat Commun, 2023).

What was measured:
Glucocorticoid receptor = biological target: T1, Glucocorticoid receptor (Homo sapiens, UniProt P04150); assay type: functional
T1 sequence (P04150 whole entry): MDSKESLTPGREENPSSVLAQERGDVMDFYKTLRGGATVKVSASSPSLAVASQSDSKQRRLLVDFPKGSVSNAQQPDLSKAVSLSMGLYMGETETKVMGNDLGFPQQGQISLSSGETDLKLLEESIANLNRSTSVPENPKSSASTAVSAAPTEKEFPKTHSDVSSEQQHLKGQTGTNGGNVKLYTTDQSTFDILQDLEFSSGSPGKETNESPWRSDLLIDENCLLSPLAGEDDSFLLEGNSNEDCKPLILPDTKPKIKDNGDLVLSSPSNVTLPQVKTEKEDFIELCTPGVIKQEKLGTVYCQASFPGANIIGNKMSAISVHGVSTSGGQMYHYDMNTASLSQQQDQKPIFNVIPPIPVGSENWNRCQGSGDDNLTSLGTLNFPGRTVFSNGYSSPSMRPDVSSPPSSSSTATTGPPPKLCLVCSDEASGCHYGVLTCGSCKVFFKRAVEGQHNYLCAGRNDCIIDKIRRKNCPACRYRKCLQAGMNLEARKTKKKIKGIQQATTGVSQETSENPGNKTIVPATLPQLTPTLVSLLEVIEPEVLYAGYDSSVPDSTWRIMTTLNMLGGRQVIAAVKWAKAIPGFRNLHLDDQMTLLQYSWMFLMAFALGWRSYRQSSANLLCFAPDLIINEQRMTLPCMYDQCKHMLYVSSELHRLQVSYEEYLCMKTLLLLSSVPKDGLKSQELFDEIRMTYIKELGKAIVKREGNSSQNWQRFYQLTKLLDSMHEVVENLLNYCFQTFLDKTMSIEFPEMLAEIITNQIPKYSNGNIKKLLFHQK

[1] = biological target: Prostaglandin G/H synthase 1 (Homo sapiens, UniProt P23219); assay type: functional
Chain of Prostaglandin G/H synthase 1 (P23219 whole entry): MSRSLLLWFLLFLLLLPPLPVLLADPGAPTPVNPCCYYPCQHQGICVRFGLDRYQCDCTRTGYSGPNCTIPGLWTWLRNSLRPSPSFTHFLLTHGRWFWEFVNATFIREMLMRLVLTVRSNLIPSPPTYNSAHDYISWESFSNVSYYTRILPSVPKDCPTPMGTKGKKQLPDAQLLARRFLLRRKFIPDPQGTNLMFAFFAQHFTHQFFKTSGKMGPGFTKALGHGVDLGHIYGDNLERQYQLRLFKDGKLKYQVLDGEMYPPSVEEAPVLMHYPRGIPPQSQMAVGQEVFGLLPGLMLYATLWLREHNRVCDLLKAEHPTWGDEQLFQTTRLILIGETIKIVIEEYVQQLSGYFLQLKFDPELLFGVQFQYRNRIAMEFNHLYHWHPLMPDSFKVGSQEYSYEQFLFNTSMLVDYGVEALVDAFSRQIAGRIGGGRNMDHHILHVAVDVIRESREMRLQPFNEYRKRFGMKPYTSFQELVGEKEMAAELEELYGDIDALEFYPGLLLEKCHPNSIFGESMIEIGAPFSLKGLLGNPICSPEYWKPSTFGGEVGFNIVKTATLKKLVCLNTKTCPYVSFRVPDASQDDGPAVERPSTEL

[2] = biological target: Sodium-dependent dopamine transporter (Homo sapiens, UniProt Q01959)
Chain of Sodium-dependent dopamine transporter (Q01959 whole entry): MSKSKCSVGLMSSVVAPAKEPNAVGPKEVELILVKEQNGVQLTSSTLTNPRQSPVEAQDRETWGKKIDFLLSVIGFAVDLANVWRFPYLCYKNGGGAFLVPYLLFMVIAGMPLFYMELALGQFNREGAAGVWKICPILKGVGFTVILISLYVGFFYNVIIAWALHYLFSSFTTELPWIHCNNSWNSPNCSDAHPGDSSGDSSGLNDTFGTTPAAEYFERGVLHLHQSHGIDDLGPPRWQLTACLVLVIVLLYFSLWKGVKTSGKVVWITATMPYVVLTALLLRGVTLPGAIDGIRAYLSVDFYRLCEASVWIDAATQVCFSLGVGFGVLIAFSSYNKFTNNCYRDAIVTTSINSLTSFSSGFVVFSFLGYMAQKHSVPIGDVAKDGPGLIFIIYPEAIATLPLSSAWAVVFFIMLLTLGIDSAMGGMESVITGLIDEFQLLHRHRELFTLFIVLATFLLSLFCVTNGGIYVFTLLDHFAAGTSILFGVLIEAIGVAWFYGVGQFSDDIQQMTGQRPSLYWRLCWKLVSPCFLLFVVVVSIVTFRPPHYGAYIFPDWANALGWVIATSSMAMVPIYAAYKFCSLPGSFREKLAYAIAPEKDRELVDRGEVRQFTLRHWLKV

Mu-type opioid receptor = Mu-type opioid receptor (Homo sapiens, UniProt P35372)
Chain of Mu-type opioid receptor (P35372 whole entry): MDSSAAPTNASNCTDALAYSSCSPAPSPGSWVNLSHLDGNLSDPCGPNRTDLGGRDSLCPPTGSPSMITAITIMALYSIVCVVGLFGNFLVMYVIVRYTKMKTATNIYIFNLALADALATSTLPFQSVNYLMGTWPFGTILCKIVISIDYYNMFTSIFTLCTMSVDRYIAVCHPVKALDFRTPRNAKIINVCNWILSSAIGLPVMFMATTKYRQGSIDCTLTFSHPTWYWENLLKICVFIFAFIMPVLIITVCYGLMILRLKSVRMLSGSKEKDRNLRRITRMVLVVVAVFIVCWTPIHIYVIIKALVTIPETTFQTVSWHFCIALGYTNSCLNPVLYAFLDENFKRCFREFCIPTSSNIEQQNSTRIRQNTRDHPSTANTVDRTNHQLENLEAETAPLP

[3] = biological target: T2, Muscarinic acetylcholine receptor M2 (Homo sapiens, UniProt P08172)
T2 sequence (P08172 whole entry): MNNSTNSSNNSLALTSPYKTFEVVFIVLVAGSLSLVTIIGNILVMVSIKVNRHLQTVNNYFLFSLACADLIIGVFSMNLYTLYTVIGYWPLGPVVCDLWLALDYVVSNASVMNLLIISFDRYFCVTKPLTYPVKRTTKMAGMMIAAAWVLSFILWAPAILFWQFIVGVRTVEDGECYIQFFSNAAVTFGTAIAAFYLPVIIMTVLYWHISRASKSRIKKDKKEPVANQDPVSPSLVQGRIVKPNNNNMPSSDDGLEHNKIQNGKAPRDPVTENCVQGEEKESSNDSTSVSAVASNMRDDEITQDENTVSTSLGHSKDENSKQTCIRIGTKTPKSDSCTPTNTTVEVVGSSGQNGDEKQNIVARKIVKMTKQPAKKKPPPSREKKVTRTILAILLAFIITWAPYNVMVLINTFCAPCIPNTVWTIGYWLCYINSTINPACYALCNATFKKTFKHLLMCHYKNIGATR

[4] = biological target: Gamma-aminobutyric acid receptor subunit alpha-1/alpha-2/beta-2/gamma-2 (Homo sapiens, UniProt P14867+P47870+P18507+P47869); assay type: functional, cell-based
Chain of Gamma-aminobutyric acid receptor subunit alpha-1/alpha-2/beta-2/gamma-2 (P14867 whole entry): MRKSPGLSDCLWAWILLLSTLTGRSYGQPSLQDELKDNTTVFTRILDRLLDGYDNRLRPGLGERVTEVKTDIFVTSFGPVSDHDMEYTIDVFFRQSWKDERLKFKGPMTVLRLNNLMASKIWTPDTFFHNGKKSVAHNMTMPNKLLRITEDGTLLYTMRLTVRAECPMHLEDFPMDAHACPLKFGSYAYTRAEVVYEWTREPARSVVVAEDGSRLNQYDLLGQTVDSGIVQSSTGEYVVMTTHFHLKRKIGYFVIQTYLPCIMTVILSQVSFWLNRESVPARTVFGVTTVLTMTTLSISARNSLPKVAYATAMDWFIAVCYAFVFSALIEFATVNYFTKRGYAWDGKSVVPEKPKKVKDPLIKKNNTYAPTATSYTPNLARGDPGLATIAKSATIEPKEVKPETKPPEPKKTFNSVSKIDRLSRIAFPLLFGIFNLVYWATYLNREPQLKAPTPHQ
Chain of Gamma-aminobutyric acid receptor subunit alpha-1/alpha-2/beta-2/gamma-2 (P47870 whole entry): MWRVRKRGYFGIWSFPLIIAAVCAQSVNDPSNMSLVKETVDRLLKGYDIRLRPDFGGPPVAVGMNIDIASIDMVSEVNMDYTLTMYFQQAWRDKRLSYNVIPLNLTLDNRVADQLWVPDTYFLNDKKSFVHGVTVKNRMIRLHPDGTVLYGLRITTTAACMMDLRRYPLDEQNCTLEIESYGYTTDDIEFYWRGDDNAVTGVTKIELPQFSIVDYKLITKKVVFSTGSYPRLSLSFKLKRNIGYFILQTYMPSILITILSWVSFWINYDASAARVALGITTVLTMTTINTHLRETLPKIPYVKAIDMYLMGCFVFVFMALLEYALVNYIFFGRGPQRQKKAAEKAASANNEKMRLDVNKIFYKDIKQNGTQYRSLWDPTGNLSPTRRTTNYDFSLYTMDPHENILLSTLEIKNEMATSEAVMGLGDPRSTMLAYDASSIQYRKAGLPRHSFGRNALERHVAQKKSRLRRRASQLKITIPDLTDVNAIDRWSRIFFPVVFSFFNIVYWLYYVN
Chain of Gamma-aminobutyric acid receptor subunit alpha-1/alpha-2/beta-2/gamma-2 (P18507 whole entry): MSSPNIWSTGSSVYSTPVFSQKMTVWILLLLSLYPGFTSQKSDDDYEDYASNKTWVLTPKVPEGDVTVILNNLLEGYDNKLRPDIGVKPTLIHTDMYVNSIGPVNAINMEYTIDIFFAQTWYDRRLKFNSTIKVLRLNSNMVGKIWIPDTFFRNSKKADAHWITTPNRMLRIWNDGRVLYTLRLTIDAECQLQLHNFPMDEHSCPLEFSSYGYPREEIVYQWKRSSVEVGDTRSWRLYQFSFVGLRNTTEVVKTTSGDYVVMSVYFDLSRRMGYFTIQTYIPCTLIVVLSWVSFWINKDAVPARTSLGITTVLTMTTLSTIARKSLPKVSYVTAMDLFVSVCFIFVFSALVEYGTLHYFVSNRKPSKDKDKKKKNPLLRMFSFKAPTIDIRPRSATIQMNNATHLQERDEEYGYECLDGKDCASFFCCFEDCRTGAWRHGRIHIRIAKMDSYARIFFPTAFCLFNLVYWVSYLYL
Chain of Gamma-aminobutyric acid receptor subunit alpha-1/alpha-2/beta-2/gamma-2 (P47869 whole entry): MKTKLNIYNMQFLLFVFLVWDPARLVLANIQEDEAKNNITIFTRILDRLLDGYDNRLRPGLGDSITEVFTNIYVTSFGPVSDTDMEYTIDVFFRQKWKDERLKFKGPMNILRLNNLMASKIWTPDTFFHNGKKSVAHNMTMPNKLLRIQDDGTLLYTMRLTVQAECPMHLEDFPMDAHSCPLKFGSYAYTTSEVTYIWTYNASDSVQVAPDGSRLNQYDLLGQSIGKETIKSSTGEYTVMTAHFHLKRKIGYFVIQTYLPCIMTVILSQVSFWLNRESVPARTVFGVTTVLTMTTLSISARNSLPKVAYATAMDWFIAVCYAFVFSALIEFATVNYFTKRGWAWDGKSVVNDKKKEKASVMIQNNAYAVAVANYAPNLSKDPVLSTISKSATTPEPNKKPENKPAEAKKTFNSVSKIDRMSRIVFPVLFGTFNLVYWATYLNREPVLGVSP

Androgen receptor = biological target: T3, Androgen receptor (Homo sapiens, UniProt P10275)
T3 sequence (P10275 whole entry): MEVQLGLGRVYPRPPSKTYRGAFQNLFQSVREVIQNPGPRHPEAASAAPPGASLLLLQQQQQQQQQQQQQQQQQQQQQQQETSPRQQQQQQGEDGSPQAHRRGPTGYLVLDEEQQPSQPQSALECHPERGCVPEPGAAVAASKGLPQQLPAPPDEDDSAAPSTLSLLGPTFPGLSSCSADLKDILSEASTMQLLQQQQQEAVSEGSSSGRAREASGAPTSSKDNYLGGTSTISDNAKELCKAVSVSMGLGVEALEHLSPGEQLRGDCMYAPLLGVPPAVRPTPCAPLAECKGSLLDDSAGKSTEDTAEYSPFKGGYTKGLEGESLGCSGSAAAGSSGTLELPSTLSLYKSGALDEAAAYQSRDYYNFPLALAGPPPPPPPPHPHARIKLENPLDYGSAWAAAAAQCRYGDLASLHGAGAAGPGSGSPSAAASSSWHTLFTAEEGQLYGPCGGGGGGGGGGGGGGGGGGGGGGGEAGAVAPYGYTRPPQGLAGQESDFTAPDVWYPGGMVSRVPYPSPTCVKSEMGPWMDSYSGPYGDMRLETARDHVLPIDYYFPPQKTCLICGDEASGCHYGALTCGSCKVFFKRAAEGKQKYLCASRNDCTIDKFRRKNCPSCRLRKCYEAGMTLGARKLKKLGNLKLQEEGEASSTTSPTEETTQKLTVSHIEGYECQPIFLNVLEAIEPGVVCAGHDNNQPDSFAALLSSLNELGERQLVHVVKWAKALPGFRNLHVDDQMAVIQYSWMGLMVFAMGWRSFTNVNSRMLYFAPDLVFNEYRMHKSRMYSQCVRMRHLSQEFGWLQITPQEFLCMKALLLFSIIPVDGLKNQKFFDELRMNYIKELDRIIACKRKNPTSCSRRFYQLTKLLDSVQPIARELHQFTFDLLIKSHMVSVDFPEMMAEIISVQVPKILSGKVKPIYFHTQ

[5] = biological target: T4, Muscarinic acetylcholine receptor M1 (Homo sapiens, UniProt P11229)
T4 sequence (P11229 whole entry): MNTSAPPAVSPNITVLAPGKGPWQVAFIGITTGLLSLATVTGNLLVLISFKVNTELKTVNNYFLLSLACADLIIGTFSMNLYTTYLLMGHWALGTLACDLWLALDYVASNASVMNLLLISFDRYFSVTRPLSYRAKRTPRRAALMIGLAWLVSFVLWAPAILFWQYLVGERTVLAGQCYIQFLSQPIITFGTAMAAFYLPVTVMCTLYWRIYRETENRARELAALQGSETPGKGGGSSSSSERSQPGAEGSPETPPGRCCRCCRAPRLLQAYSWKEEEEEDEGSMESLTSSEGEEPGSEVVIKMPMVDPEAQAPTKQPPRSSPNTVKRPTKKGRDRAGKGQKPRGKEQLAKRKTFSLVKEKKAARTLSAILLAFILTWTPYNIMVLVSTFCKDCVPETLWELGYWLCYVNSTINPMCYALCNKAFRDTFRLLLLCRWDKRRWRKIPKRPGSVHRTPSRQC
Note: assay procedure not described here.

COc1cccc2c1C(=O)c1c(O)c3c(c(O)c1C2=O)C[C@@](O)(C(C)=O)C[C@@H]3O[C@H]1C[C@H](N)[C@H](O)[C@H](C)O1 [DAUNORUBICIN]
AC50 (Glucocorticoid receptor): > 10 µM

C[n+]1ccccc1/C=N/O [PRALIDOXIME]
AC50 [1]: > 30 µM | AC50 [2]: > 30 µM | AC50 (Mu-type opioid receptor): > 30 µM | AC50 [3]: > 30 µM

COLISTIN
AC50 [1]: 11.2 µM | AC50 [2]: 26.6 µM | AC50 [4]: > 30 µM | AC50 (Mu-type opioid receptor): > 30 µM | AC50 (Androgen receptor): > 30 µM | AC50 [3]: > 30 µM | AC50 [5]: > 30 µM
